According to US20250360124A1, “NOVEL RAS INHIBITORS” (KHR BIOTEC GMBH, priority 2022, published 2025):
Counter-ions that a name gives are not always drawn.

Columns and labels:
Type in all cases: cell-based
HRAS G12V = molecular target: T1, HRAS G12V (Homo sapiens, UniProt P01112, G12V); assay: NanoBit assay for RAS activation (LgBiT-RAS / SmBiT-CRAF RBD); conditions: H-RAS G12V with CRAF RBD; 2 h with inhibitor, serum free DMEM; FIG. 1
T1 construct: K, N and HRAS G12V (full length) was cloned with Xho I and Bgl II to LgBit; expressed in transfected cells
T1 sequence (P01112 whole entry G12V): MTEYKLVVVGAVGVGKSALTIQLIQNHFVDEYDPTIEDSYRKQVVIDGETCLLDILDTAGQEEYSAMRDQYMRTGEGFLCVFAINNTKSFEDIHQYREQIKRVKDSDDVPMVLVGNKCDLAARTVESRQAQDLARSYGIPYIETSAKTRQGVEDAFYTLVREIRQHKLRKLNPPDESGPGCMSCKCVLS
Procedure: (§1) FIG. 1a) and 1b): NanoBit assay for RAS activation (KRAS G12V, NRAS G12V, HRAS G12V)
(§2) N-terminal LgBiT and C-terminal SmBIT construct was purchased from Promega and K, N and HRAS G12V (full length) was cloned with Xho I and Bgl II to LgBit and CRAF Ras binding domain (1-149) was cloned with EcoRI and Bgl II to SmBit. For transfections, 1 μg or 2 μg of (12 well/6 well) plasmids were transfected into cells with 0.5 mM of PEI reagent in 100 μl or 200 μl PBS. One day after transfection, cells were harvested and seeded into 96 well white plates, half area (Greiner). After an additional day the medium was changed to serum free DMEM and the cells were incubated for 2 h with inhibitors. NanoGlo assay was performed according to the manufacturer's instructions. The luminescence was measured using Tecan infinite (Tecan). DMSO-treated cells were set as 1. The results shown are mean mean±SEM from at least 3 independent experiments.

KRAS G12V = molecular target: T2, KRAS G12V (Homo sapiens, UniProt P01116, G12V); assay: as above; conditions: K-RAS G12V with CRAF RBD; 2 h with inhibitor, serum free DMEM; FIG. 1
T2 construct: K, N and HRAS G12V (full length) was cloned with Xho I and Bgl II to LgBit; expressed in transfected cells
T2 sequence (P01116 1-188 isoform P01116-2 G12V): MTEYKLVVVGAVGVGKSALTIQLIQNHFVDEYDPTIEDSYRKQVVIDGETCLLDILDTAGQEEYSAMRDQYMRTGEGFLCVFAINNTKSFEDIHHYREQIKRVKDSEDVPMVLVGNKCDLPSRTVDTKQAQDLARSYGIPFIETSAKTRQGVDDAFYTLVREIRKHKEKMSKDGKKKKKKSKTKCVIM
Procedure: as §1, §2

NRAS G12V = molecular target: T3, NRAS G12V (Homo sapiens, UniProt P01111, G12V); assay: as above; conditions: N-RAS G12V with CRAF RBD; 2 h with inhibitor, serum free DMEM; FIG. 1
T3 construct: K, N and HRAS G12V (full length) was cloned with Xho I and Bgl II to LgBit; expressed in transfected cells
T3 sequence (P01111 whole entry G12V): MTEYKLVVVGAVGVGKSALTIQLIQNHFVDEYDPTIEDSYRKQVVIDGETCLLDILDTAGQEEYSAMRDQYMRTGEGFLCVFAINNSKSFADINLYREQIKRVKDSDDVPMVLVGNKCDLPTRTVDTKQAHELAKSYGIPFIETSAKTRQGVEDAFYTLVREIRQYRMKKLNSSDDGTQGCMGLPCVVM
Procedure: as §1, §2

ASPC1 cells = assay: Soft agar colony formation assay, MTT readout; conditions: Homo sapiens, growth in soft agar, colonies stained with MTT, absorbance 570 nm
Procedure: (§3) FIGS. 2a) and 2b): MTT assay for cell growth
(§4) Metabolic activity was quantified using Cell Proliferation Kit I (Roche, Basel, Switzerland). Cells were seeded in 96-well cell culture plates, using 5000 cells per well for NCI-H358 cells. After treatment, 10 μl of MTT solution was added and incubated for 2 h in CO2 incubator. Then 100 μl of solubilization buffer was added to each well and incubated overnight in CO2 incubator. Cell viability, assessed by the amount of metabolized MTT, was quantified by measuring absorbance at 570 nm.
(§5) MTT assay for the growth of different tumor cell lines with RAS mutations in soft agar with Quinacrine dihydrochloride.
(§6) NCI-H358, H358, H2122, ASPC-1, HCT-116, T24 and HT1080 cells were used for the soft agar colony formation assay. After the treatment with Quinacrine dihydrochloride hydrate, the colonies were stained with MTT and the value was quantified by measuring absorbance at 570 nm after solubilization. The results represent mean±SEM from 3 independent experiments.

HCT-116 cells = assay: Soft agar colony formation assay, MTT readout; conditions: Homo sapiens, growth in soft agar, colonies stained with MTT, absorbance 570 nm
Procedure: as §3, §4, §5, §6

HT1080 cells = assay: Soft agar colony formation assay, MTT readout; conditions: Homo sapiens, HT-1080, growth in soft agar, colonies stained with MTT, absorbance 570 nm
Procedure: as §3, §4, §5, §6

NCI-H2122 cells = assay: Soft agar colony formation assay, MTT readout; conditions: Homo sapiens, growth in soft agar, colonies stained with MTT, absorbance 570 nm
Procedure: as §3, §4, §5, §6

NCI-H358 cells = assay: Soft agar colony formation assay, MTT readout; conditions: Homo sapiens, growth in soft agar, colonies stained with MTT, absorbance 570 nm
Procedure: as §3, §4, §5, §6

T24 cells = assay: Soft agar colony formation assay, MTT readout; conditions: Homo sapiens, T-24, growth in soft agar, colonies stained with MTT, absorbance 570 nm
Procedure: as §3, §4, §5, §6

sNF96.2 cells = assay: MTT assay for cell viability in 96 well plate, RASOpathie model; conditions: 48 h treatment
KRAS dependent cells = assay: MTT assay for cell viability in 96 well cell culture plate; conditions: 48 h treatment, KRAS dependent cells incl. G12C/Y96D mutation, FIG. 3a
Procedure: FIGS. 3a) and 3b): MTT assay for cell viability in 96 well cell culture plate Cells were treated with Quinacrine dihydrochloride hydrate for 48 h and cell viability was evaluated by MTT assay. DMSO-treated cells were set as 1. The results shown are mean±SEM from 3 independent experiments.
G12C/Y96D mutation is normally seen in patients, who develop resistance to G12C inhibitor. Thus, patients, who are resistant to G12C inhibitors can still be treated with Quinacrine dihydrochloride.

- inhibition of RAS activation (NanoBit luminescence) (HRAS G12V): inhibits
- inhibition of RAS activation (NanoBit luminescence) (KRAS G12V): inhibits
- inhibition of RAS activation (NanoBit luminescence) (NRAS G12V): inhibits
- IC50 (ASPC1 cells): 4.28 µM
- IC50 (HCT-116 cells): 5.5 µM
- IC50 (HT1080 cells): 149 µM
- IC50 (NCI-H2122 cells): 2.48 µM
- IC50 (NCI-H358 cells): 5.1 µM
- IC50 (T24 cells): 4 µM
Compound: CCN(CC)CCCC(C)Nc1c2ccc(Cl)cc2nc2ccc(OC)cc12 (centres unmarked) [Quinacrine dihydrochloride hydrate, 4-N-(6-chloro-2-methoxyacridin-9-yl)-1-N,1-N-diethylpentane-1,4-diamine;hydrate;dihydrochloride]
- IC50 (sNF96.2 cells): 4.51 µM
- inhibition of cell viability (KRAS dependent cells): inhibits KRAS dependent cells irrespective of the presence of mutation
